Data on 93 compounds can be found in a melting point compilation (Tetko et al.; mined from patent text by program, amines drawn as free bases though some values may be those of a salt).

As a reminder, the melting point is the temperature, or range, at which the solid turns liquid.

Where only a bound is given, the exact number is not on record here.

Turning to `COC(=O)CCC(C#N)(CCC(=O)OC)c1ccc(OC)c(OC2CCCC2)c1`, the melting point fell in the range of 81 to 82 °C.
The same measure for `CC(C)Oc1c(Br)csc1C(=O)Nc1nnn[nH]1`: 193 to 194 °C; for `COC(=O)c1ccc(NN)cc1S(=O)(=O)NC(C)(C)C`: 133 to 136 °C.
Regarding `CC(C(=O)O)c1ccc2oc(-c3ccccc3)nc2c1` (stereo not drawn), the melting point lay in the range of 177 to 179 °C.
With `Cc1ccc(S(=O)(=O)NC(CN)C(=O)O)cc1` (stereo not drawn), the melting point fell in the range of 225 to 226 °C.
For the compound `COc1cc2c(cc1OC)C(C(=O)Nc1c(C(C)C)cccc1C(C)C)SCC2` (stereo not drawn), the melting point lay within 72 to 74 °C.
`CCN(CC)Cc1cc(C(=O)c2ccc(Cl)cc2)cc(C(C)(C)C)c1O` showed a melting point of 95 to 96.5 °C.
The same measure for `C=CCNc1ccnc2cn[nH]c12`: 230 to 232 °C.
The result for `CS(=O)(=O)N1CC1COc1ccc(C#N)cc1` (stereo not drawn) reads 79 to 81 °C; that for `CNC(=O)c1cc(-c2ccc(SC)cc2)nn(CC(C)C)c1=O`, 130 to 131 °C; that for `N#Cc1cccc(CSc2nnc(-c3ccc4[nH]ncc4c3)o2)c1`, 172 to 173 °C.
The result for `Cc1cc(-c2cc(CO)c(=O)n(CC(C)C)n2)ccc1F` reads 107 to 110 °C.
As to `CC(C)(CNc1ccc(C(=O)CCCC(=O)O)cc1)[N+](=O)[O-]`, the melting point was 160 to 161 °C.
Compound `OC1=C(c2ccccc2)CC(O)(Cl)C=C1` (stereo not drawn) gave a melting point of 110 to 111 °C.
Regarding `CC(C)[C@H](N)C(=O)OCc1nc2c(N)nc3ccccc3c2n1CC(C)(C)O`, the melting point is 190 to 192 °C.
Take `CCOc1ccc2c(c1)C(C)(c1ccccc1Cl)C(=O)N2S(=O)(=O)c1ccc(N)cc1OC` (stereo not drawn): the melting point came out at 211 °C.
`CC1(c2ccc(F)cc2)OC(C=Cc2ccc(C#N)cc2)=CC1=O` (stereo not drawn): the melting point fell in the range of 140 to 142 °C.
With `CCCCCCCCCCC#Cc1csc(CC(N)CO)c1` (stereo not drawn), the melting point was 85 to 135 °C.
As to `c1ccc2c3c([nH]c2c1)CCC3`, the melting point was 135 °C.
The compound `CCNc1nc(=S)n(Cc2ccc(OC)c(OC3CCCC3)c2)c2nc(C(C)C)[nH]c12` registered a melting point of 72 to 77 °C.
The result for `CN(Cc1ccc2nsnc2c1)C1CCN(C(=O)c2ccc(Nc3nccc(Nc4ccc(F)cc4)n3)cc2)CC1` reads 191 to 192 °C; that for `COc1ccc2cc(CN(C)C(=O)c3oc4ccccc4c3CCc3ccccc3)ccc2c1Br`, 54 to 57 °C.
As for `COC1=CC2=CCC3C(CCC4(C)C(=O)CC(OC(C)=O)C34)C2(C)CC1` (stereo not drawn), the melting point stood at 209 °C.
`CC(C)Cc1cnc(O)c([N+](=O)[O-])c1` came in with a melting point of 161 to 163 °C.
With `NCC1CN(c2cc3c(cc2F)c(=O)c(C(=O)O)cn3C2CC2)C1`, the melting point lay within 205 to 211 °C.
Compound `CC1(C)CCC(C)(C)c2cc(-c3cc([N+](=O)[O-])ccc3-c3ccccc3)ccc21` yielded a melting point of 181 to 183 °C.
As for `CC1CCc2c(N3CCN(C)CC3)c(F)cc3c(=O)c(C(=O)O)cn1c23` (stereo not drawn), the melting point lay within 262 to 263 °C.
The compound `O=C(N[C@H]1CCCNC1=O)c1cc(F)ccc1F` registered a melting point of 140 to 142 °C.
For the compound `Oc1ccc(NCCCCCCCBr)cc1`, the melting point lay within 121 to 123 °C.
Compound `CNc1cc(OC)c(OC)cc1C(C)=O` gave a melting point of 121 to 124 °C.
`CCN(CC)C(=O)COC(=O)C(C)c1ccc2cc(OC)ccc2c1` (stereo not drawn) registered a melting point of 89 to 89.5 °C.
Take `CC(C)(C)C(=O)ON1C(C)(C)CC(OC(=O)c2ccccc2)CC1(C)C`: the melting point was 107 to 110 °C.
Compound `COc1ccc(OCC#N)c(SCC#N)c1` had a melting point of 53 to 54 °C.
For `O=CCC1Cc2ccc(F)cc2C1=O` (racemic), the melting point is 62 °C.
Take `CCOC(=O)c1cnc2nc(C(F)(F)F)ccc2c1O`: the melting point was greater than 250 °C.
The result for `CNC1(C)CN(c2c(F)cc3c(=O)c(C(=O)O)cn(C4CC4)c3c2F)C1` reads greater than 300 °C.
Consider `CC(c1ccc(N)cc1)n1ccnc1` (stereo not drawn), for which the melting point amounted to 130 °C.
Consider `COc1ccccc1C(=O)Nc1nc2ccccc2s1`, for which the melting point is 196 to 197 °C.
Regarding `CNc1nc2ccn(Cc3ccc(F)cc3)cc-2n1`, the melting point was determined as 210 °C.
The result for `Cc1cc(F)ccc1-c1nc(NC2CCCCC2)nc2c1ccc(=O)n2-c1c(F)cccc1F` reads 218 to 219 °C; that for `CC(=O)Nc1nc(CCCl)cs1`, 161 to 163 °C; that for `O=C(CN1C(=O)CSC1=O)c1ccc(Cl)cc1`, 122 to 124 °C.
`CCOC(=O)C1=C(COC2CCN(C)CC2)NC(C)=C(C(=O)OC)C1c1cccc(C(F)(F)F)c1Cl` (stereo not drawn) registered a melting point of 180 to 181 °C.
Turning to `Cc1c(C)n(Cc2ccccc2)c2ncnc(Nc3cccc(Cl)c3)c12`, the melting point was 132 to 133 °C.
As for `COC(c1ccc(NC(=O)c2c(C(F)(F)F)nn(C)c2C)cc1CC(C)C)(C(F)(F)F)C(F)(F)F`, the melting point was in the range of 138 to 139 °C.
`O=C(Oc1ccc([N+](=O)[O-])cc1)C(=O)N1CCOC1=O` showed a melting point of 159 °C.
The same measure for `CCc1nnc(-c2ccc(OC)cc2)n1-c1ccc(C(=O)N(C)C)cc1`: 136 °C; for `CCOc1cc([N+](=O)[O-])ccc1N1C(=O)c2ccccc2C1=O`: 204 to 206 °C; for `CCCn1cc2c(C3C(=O)Nc4ccc(Br)cc43)nc(NCC(C)N)nc2n1` (stereo not drawn): 247 to 250 °C.
Turning to `O=C(O)Cc1coc2cc(OCc3cc(-c4ccc(Cl)cc4)on3)ccc12`, the melting point lay in the range of 193 to 194 °C.
`COc1cc2c(cc1OC)C1N=Cc3cc4c(cc3C1CC2)OCO4` (stereo not drawn) returned a melting point of 208 to 210 °C.
Turning to `CCn1c(C(O)(c2cccc(C(F)(F)F)c2)c2cccc(C(F)(F)F)c2)nc(-c2ccncc2)c1-c1ccc(Cl)cc1`, the melting point lay within 193 to 195 °C.
The compound `CCN1C(=O)C(=O)c2cc(S(=O)(=O)N(C)C)ccc21` returned a melting point of 165 to 167 °C.
The compound `CCCc1nc2c(N)nc3c(c2n1CCOCCS(C)(=O)=O)CCCC3` came in with a melting point of 153 to 155 °C.
In turn, `Oc1ccc2c(-c3cccc4ccc(O)cc34)noc2c1` showed a melting point of 262 to 264 °C.
Compound `O=CC(O)C(O)C(CO)OC1OC(CO)C(O)C(O)C1O` (stereo not drawn) displayed a melting point of 171 to 176 °C.
In the case of `Nc1nnc(N2CCOCC2)s1`, the melting point lay in the range of 186 to 188 °C.
Consider `O=C(O)Cc1ccccc1OCCn1ccnc1`, for which the melting point is 146 to 147 °C.
As for `NC(=O)[C@@H]1C[C@H](F)CN1C(=O)CCl`, the melting point lay in the range of 95 to 96 °C.
For the compound `CCCCCNC(=O)N(C)c1ncc(-c2ccc(C[C@H](OCC)C(=O)O)cc2)s1`, the melting point turned out to be 114 °C.
Turning to `C=CC(=O)c1ccc(OC(=O)c2ccc(C#N)cc2)cc1`, the melting point came out at 122 °C.
For `CCCCCCCNC(=O)CCCCO`, the melting point was in the range of 53 to 54 °C.
Regarding `COc1ccc(C(=O)CC(=O)Nc2ccc(C)cc2)cc1`, the melting point was in the range of 122 to 126 °C.
The result for `O=C(/C=C/c1c[nH]c2ccc(O)cc12)c1ccncc1` reads 262 to 268 °C; that for `CCCCN(CCCC)CCCOc1ccc(C(=O)c2c(C)oc3ccc([N+](=O)[O-])cc23)cc1`, 63 °C; that for `O=C(O)CCC(=O)N[C@H]1C[C@H](C(=O)O)Nc2cc(Cl)cc(Cl)c21` (relative stereo), 221 to 223 °C.
In turn, `O=C(O)COc1cc(Br)c2oc3ccccc3c(=O)c2c1` showed a melting point of 219 to 221 °C.
`CCCCNC(=O)Oc1ccc(C(O)(CC)c2cccc(C(F)(F)F)c2)cc1` (stereo not drawn) displayed a melting point of 99 to 100 °C.
The result for `CNC(=O)[C@@H]1C[C@@H](OC(C)(C)C)CN1S(=O)(=O)c1ccc(Cl)c(CBr)c1Cl` reads 73 °C.
The result for `CSc1sc(C(=O)O)c2c1-c1nn(C)cc1CC2` reads 290 to 291 °C.
The same measure for `CCCCc1cc(OCc2ccc(C#N)cc2)c2ccccc2n1`: 74 °C; for `CC1NC(=O)NN=C1c1cccc(Cl)c1` (stereo not drawn): 206 to 208 °C; for `CNS(=O)(=O)c1ccsc1C(=O)OC`: 115 to 122 °C.
`CCOC1=NS(=O)(=O)c2ccc(N)cc21` yielded a melting point of 154 to 156 °C.
The compound `CC(=O)N1CCN(c2c(F)c(C)c3c(=O)c(C(=O)O)cn(C4CC4)c3c2F)CC1` showed a melting point of 217 to 220 °C.
`CSc1nc(C)ccc1NC(=O)CCCCCCCCBr` registered a melting point of 80 to 82 °C.
Compound `COc1ccc(CN(C)CCCc2ccc(NC(=O)c3cccc4c(=O)c5cccc(OC)c5[nH]c34)c(C)c2)cc1OC` showed a melting point of 154 °C.
The same measure for `CN(C)NC(=O)c1c([Si](C)(C)C)ccc(Cl)c1Cl`: 144 to 145 °C; for `CC(=O)Nc1ccc2c(c1)/C(=N\NC(N)=O)C(=O)N2CCN(C(C)C)C(C)C`: 135 to 137 °C; for `ClC(Cl)(Cl)c1nnc(Br)s1`: 39 °C.
As to `CCOC(=O)CC(=O)c1ccc(F)c(Cl)c1`, the melting point was in the range of 39 to 40 °C.
With `CCn1ccc(-c2sc(NC(=O)c3ccncc3)nc2-c2ccco2)cc1=O`, the melting point is 245 to 248 °C.
The same measure for `N#CNC1NN=C(c2ccc3ccccc3c2)O1` (stereo not drawn): greater than 250 °C.
Compound `CCCCCCCCCCCCCCCCCCS(=O)(=O)c1cc2ccccc2cc1O` registered a melting point of 98 to 99 °C.
Regarding `CCCCNC(=O)C1CC2(NC(=O)NC2=O)c2cc(F)ccc2O1` (stereo not drawn), the melting point was 286 to 288 °C.
Compound `CNC(=O)C(C)n1c(-c2ccc(Cl)cc2)nc2cccnc21` (stereo not drawn) came in with a melting point of 217 to 218 °C.
The compound `Oc1ccc(CCc2ccc(O)cc2)cc1` displayed a melting point of 199 to 200 °C.
Regarding `COCCNc1ccnc2c(NC(=O)c3c(Cl)cccc3Cl)cccc12`, the melting point is 166 °C.
With `C[C@H]1CCCC(C)(C)[C@@H]1[C@H](O)c1ccc(F)c(C#N)c1`, the melting point was in the range of 118 to 119 °C.
For the compound `Cc1nc2n(c1CN(C)C)-c1ccc(Cl)cc1C(c1ccccc1Cl)=NC2`, the melting point fell in the range of 191 to 194 °C.
In turn, `CC(C)(C)c1ccc(S(=O)(=O)N2c3ccccc3C[C@H]2C(=O)Cl)cc1` came in with a melting point of 148 °C.
In turn, `Cc1cc(O)cc(O)c1C(=O)NNC(=O)C(O)c1ccccc1` (stereo not drawn) yielded a melting point of 188 to 189 °C.
The same measure for `CCOC(=O)c1ccc([C@H]2CC[C@H](NCc3ccccc3)CC2)cc1`: 74 to 76 °C.
